pIC50: −log10 of the molar value. ≈ marks a conversion by molar mass, not a printed value. Like-named read-outs stand apart in the source and are kept apart here.
Experiments:
[1] = tested on: Fusarium moniliforme (Fm); assay: Growth inhibition assay of fungal pathogens, Fm; assay type: cell-based; conditions: for IC90: Fusarium verticillioides, 48 h, read-out: Concentration at 90% Inhibition Fm
How it was run: (§1)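 Spores from sub-cultured plates were diluted in 17% V8 liquid medium and exposed to compound from DMSO stocks at final concentrations of 50, 10 and 2 ppm or 2, 0.4 and 0.08 ppm. OD600 and visual ratings at 48 h were compared with the 2% DMSO control to give percent growth inhibition.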

fungal (fACC2) = fungal (fACC2) (UniProt Q00955); conditions: read-out: fACC2 (in vitro ACC2 Inhibition Assay, IC50), ADP-Glo, 5 nM ACC2, 20 μM ATP, 20 μM acetyl-CoA
fungal (fACC2), sequence (Q00955 whole entry): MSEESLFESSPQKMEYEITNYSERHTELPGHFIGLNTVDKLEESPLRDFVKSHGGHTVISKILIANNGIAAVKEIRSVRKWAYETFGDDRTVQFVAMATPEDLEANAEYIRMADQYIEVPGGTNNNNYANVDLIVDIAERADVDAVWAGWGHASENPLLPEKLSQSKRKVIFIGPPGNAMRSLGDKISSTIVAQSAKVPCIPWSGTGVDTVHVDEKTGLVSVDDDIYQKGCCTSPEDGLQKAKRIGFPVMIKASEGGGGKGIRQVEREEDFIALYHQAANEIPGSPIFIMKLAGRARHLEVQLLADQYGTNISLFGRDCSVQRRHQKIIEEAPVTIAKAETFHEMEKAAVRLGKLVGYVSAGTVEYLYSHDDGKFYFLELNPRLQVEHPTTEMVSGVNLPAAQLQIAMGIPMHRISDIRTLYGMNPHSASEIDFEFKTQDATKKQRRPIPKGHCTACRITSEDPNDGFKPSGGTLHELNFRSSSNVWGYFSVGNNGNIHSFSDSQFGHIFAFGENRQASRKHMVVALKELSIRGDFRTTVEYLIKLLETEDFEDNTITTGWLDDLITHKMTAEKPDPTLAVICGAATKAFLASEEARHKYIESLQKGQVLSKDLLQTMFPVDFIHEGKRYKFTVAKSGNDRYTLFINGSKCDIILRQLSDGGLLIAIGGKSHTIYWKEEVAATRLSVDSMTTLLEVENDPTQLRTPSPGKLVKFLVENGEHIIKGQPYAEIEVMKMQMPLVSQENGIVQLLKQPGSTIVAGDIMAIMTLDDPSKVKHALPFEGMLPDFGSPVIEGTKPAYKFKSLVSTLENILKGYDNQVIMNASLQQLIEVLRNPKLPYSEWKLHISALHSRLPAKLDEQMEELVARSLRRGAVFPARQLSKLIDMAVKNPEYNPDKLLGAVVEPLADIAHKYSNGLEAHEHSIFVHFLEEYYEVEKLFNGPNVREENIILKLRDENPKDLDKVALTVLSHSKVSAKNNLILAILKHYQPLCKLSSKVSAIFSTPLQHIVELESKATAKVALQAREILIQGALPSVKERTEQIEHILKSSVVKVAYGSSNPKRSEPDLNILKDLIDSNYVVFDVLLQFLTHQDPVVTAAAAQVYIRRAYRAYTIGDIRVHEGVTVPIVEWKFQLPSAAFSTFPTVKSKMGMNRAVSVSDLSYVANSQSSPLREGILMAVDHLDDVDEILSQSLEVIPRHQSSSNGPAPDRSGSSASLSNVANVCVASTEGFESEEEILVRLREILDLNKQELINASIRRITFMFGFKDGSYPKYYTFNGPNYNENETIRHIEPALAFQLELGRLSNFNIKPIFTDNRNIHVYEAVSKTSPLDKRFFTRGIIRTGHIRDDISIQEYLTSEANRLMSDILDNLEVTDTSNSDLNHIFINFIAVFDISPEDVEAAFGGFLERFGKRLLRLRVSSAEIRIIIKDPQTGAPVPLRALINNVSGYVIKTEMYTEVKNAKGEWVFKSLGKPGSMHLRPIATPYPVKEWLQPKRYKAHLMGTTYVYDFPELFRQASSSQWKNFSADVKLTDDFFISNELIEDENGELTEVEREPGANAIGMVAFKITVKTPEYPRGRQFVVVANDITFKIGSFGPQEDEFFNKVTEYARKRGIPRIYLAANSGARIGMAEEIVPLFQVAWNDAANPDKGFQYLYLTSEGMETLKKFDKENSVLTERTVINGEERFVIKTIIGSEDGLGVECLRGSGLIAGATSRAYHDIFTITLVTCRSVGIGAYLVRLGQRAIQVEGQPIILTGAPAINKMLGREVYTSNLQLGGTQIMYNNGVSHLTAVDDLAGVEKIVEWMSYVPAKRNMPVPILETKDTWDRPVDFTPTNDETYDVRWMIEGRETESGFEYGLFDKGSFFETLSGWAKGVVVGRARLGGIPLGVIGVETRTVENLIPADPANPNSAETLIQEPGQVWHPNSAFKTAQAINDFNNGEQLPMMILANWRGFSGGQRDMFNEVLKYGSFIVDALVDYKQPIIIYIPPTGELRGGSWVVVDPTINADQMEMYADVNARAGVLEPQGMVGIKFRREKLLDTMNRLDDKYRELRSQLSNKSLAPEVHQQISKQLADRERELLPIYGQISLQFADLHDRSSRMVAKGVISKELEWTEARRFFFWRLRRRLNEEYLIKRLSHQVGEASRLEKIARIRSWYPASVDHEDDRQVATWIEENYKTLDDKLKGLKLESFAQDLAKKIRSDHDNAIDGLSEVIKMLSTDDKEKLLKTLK

[2] = tested on: Fusarium virguliforme (Fv); assay: Growth inhibition assay of fungal pathogens, Fv; assay type: cell-based; conditions: 48 h
How it was run: as §1

Rhizoctonia solani (Rs) = assay: Growth inhibition assay of fungal pathogens, Rs; assay type: cell-based; conditions: 48 h
Botrtyis cinerea (Bc) = assay: Growth inhibition assay of fungal pathogens, Bc; assay type: cell-based; conditions: 48 h
How it was run: as §1

C. parapsilosis = assay: Antifungal Activity Assay (broth microtiter MIC), C. parapsilosis; assay type: cell-based, Candida parapsilosis; conditions: Lodderomyces parapsilosis, ATCC22019, 48 h
How it was run: (§2)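 Susceptibility was determined by CLSI M27-A3 broth microdilution in RPMI 1640 buffered with MOPS. Growth inhibition was scored visually after 48 h.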

C. albicans = assay: Antifungal Activity Assay (broth microtiter MIC), C. albicans; assay type: cell-based, Candida albicans; conditions: Candida albicans, ATCC90028, 48 h
How it was run: as §2

human (hACC2) = human (hACC2) (Homo sapiens, UniProt O00763); assay: In vitro ACC inhibition assay (ADP-Glo), hACC2; assay type: biochemical; conditions: 5 nM ACC2, 20 μM ATP, 20 μM acetyl-CoA
human (hACC2), sequence (O00763 whole entry): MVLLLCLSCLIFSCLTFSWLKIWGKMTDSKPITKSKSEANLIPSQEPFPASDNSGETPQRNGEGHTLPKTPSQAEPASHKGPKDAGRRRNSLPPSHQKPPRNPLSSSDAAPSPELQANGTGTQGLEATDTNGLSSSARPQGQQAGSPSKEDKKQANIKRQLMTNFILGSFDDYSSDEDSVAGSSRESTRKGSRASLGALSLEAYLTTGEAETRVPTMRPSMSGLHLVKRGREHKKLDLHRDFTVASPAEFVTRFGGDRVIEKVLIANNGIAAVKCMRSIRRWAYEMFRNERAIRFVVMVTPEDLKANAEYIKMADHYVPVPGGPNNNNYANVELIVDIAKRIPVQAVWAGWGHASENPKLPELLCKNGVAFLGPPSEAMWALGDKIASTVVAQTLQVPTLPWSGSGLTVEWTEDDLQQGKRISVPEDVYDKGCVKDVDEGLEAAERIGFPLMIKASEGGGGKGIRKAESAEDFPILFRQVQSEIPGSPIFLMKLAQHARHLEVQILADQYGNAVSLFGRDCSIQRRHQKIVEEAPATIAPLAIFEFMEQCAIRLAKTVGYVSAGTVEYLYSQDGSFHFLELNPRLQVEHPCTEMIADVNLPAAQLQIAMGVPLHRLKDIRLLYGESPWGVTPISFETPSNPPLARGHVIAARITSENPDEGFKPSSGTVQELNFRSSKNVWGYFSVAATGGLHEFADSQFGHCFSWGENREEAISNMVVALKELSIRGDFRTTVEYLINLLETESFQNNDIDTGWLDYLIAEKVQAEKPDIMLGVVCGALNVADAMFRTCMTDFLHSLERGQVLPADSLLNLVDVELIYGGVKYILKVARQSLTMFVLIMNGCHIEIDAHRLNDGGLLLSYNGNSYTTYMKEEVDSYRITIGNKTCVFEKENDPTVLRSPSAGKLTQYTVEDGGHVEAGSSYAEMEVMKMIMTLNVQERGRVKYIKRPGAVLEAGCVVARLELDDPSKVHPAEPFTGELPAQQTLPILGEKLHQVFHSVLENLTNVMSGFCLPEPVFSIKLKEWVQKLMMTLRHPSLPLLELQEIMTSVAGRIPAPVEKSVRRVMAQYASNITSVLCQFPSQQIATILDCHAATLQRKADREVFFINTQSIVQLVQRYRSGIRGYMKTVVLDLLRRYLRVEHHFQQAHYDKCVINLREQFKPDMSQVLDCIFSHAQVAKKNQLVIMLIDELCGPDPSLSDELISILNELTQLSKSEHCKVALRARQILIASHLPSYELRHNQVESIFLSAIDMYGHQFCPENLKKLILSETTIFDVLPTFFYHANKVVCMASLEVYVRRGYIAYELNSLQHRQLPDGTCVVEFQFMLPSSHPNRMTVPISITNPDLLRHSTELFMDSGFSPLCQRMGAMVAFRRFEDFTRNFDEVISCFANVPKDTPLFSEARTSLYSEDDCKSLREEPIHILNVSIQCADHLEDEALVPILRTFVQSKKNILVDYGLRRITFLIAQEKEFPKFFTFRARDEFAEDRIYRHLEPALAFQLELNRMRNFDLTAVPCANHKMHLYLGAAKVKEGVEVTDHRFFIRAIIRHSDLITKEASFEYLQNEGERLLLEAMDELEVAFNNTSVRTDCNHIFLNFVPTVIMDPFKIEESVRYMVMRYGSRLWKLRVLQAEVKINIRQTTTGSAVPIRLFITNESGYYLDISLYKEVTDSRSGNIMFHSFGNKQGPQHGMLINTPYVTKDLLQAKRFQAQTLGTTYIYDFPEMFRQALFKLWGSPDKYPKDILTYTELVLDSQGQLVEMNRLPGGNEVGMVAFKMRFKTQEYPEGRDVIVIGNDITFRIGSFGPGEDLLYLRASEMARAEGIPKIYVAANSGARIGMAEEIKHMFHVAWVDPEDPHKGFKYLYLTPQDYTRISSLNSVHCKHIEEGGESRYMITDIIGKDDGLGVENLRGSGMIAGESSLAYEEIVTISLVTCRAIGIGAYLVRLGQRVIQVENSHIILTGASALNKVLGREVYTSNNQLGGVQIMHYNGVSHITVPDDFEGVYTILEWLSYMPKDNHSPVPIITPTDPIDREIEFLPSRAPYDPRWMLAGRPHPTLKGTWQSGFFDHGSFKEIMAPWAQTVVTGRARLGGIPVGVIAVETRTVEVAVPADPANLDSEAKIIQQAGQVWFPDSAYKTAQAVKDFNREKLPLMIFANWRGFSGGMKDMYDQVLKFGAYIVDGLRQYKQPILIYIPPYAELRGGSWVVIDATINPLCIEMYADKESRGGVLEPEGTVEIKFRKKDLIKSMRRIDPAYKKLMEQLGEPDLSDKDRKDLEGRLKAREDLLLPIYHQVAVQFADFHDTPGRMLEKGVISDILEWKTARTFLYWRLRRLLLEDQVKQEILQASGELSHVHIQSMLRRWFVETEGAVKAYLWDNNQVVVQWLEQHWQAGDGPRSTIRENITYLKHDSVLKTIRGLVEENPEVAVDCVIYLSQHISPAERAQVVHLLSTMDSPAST
Method: The detailed procedure is as follows. […] 10 μL ADP glo reagent was added. […] 20 μL kinase detection reagent was added.

Septoria tritici (St) = assay: Growth inhibition assay of fungal pathogens, St; assay type: cell-based; conditions: Zymoseptoria tritici, 48 h
How it was run: as §1

Diplodia maydis (Dm) = assay: Growth inhibition assay of fungal pathogens, Dm; assay type: cell-based; conditions: Stenocarpella maydis, 48 h
How it was run: as §1

[3] = Fusarium moniliforme, growth inhibition at 48 hours vs 2% DMSO control
[4] = read-out: Concentration at 90% Inhibition Fv, Fusarium virguliforme, growth inhibition at 48 hours vs 2% DMSO control
[5] = read-out: Concentration at 90% Inhibition Fv, Fusarium virguliforme, growth inhibition vs 2% DMSO control at 48 hours
[6] = read-out: Concentration at 90% Inhibition Rs, Rhizoctonia solani, mycelial plugs, growth inhibition at 48 hours vs 2% DMSO control
[7] = read-out: Concentration at 90% Inhibition Rs, Rhizoctonia solani, mycelial plugs, growth inhibition vs 2% DMSO control at 48 hours
[8] = read-out: Concentration at 90% Inhibition Bc, Botrtyis cinerea, growth inhibition at 48 hours vs 2% DMSO control
[9] = read-out: Concentration at 90% Inhibition Bc, Botrtyis cinerea, growth inhibition vs 2% DMSO control at 48 hours
[10] = read-out: MIC, C. parapsilosis ATCC 22019, Table 3a, 3 replicates, MIC recorded at 48 h
[11] = read-out: MIC, C. parapsilosis ATCC 22019, Table 3b (additional results), 3 replicates, MIC recorded at 48 h
[12] = read-out: MIC, C. albicans ATCC 90028, Table 3a, 3 replicates, MIC recorded at 48 h
[13] = read-out: MIC, C. albicans ATCC 90028, Table 3b (additional results), 3 replicates, MIC recorded at 48 h
[14] = read-out: Concentration at 90% Inhibition St, Septoria tritici, growth inhibition at 48 hours vs 2% DMSO control
[15] = read-out: Concentration at 90% Inhibition St, Septoria tritici, growth inhibition vs 2% DMSO control at 48 hours
[16] = read-out: Concentration at 90% Inhibition Dm, Diplodia maydis, growth inhibition at 48 hours vs 2% DMSO control
[17] = read-out: Concentration at 90% Inhibition Dm, Diplodia maydis, growth inhibition vs 2% DMSO control at 48 hours

COc1ccc(F)cc1[C@H](Cn1c(=O)n(C(C)(C)C(=O)N2CCCCC2)c(=O)c2c(C)c(-n3nccn3)sc21)OC1CCC(=O)CC1 [Compound I-34, (R)-1-(2-(5-fluoro-2-methoxyphenyl)-2-((4-oxocyclohexyl)oxy)ethyl)-5-methyl-3-(2-methyl-1-oxo-1-(piperidin-1-yl)propan-2-yl)-6-(2H-1,2,3-triazol-2-yl)thieno[2,3-d]pyrimidine-2,4(1H,3H)-dione]
Concentration at 90% Inhibition Fm [1, 3]: AA (compound concentration of 0.08 ppm at 90% inhibition of fungal pathogens)
IC90 [1]: 0.08 µg/mL (≈ 0.12 µM)
pIC50 (fungal (fACC2); Table 2a): 8.30 to 9.00
pIC50 (fungal (fACC2); Table 2b, additional results): 8.30 to 9.00
IC90 [2, 4]: 0.4 µg/mL (≈ 0.6 µM)
IC90 [2, 5]: 0.4 µg/mL (≈ 0.6 µM)
IC90 (Rhizoctonia solani (Rs); [6]): 2 µg/mL (≈ 3 µM)
IC90 (Rhizoctonia solani (Rs); [7]): 2 µg/mL (≈ 3 µM)
IC90 (Botrtyis cinerea (Bc); [8]): 0.4 µg/mL (≈ 0.6 µM)
IC90 (Botrtyis cinerea (Bc); [9]): 0.4 µg/mL (≈ 0.6 µM)
MIC (C. parapsilosis; [10]): 0.25 to 1 µg/mL (≈ 0.375 to 1.5 µM)
MIC (C. parapsilosis; [11]): 0.25 to 1 µg/mL (≈ 0.375 to 1.5 µM)
MIC (C. albicans; [12]): 0.25 to 1 µg/mL (≈ 0.375 to 1.5 µM)
MIC (C. albicans; [13]): 0.25 to 1 µg/mL (≈ 0.375 to 1.5 µM)
pIC50 (human (hACC2); Table 2a): 8.00 to 8.30
pIC50 (human (hACC2); Table 2b, additional results): 8.00 to 8.30
IC90 (Septoria tritici (St); [14]): > 50 µg/mL
IC90 (Septoria tritici (St); [15]): > 50 µg/mL
IC90 (Diplodia maydis (Dm); [16]): 2 µg/mL (≈ 3 µM)
IC90 (Diplodia maydis (Dm); [17]): 2 µg/mL (≈ 3 µM)

COc1ccc(F)cc1[C@H](Cn1c(=O)n(CC(=O)NC(C)C)c(=O)c2c(C)c(-n3nccn3)sc21)OC(C)C [Compound I-35, (R)-2-(1-(2-(5-fluoro-2-methoxyphenyl)-2-isopropoxy-ethyl)-5-methyl-2,4-dioxo-6-(2H-1,2,3-triazol-2-yl)-1,4-dihydrothieno[2,3-d]pyrimidin-3(2H)-yl)-N-isopropylacetamide]
Concentration at 90% Inhibition Fm [1, 3]: AA (compound concentration of 0.08 ppm at 90% inhibition of fungal pathogens)
IC90 [1]: 0.08 µg/mL (≈ 0.143 µM)
pIC50 (fungal (fACC2); Table 2a): 8.30 to 9.00
pIC50 (fungal (fACC2); Table 2b, additional results): 8.30 to 9.00
IC90 [2, 4]: 0.4 µg/mL (≈ 0.716 µM)
IC90 [2, 5]: 0.4 µg/mL (≈ 0.716 µM)
IC90 (Rhizoctonia solani (Rs); [6]): 2 µg/mL (≈ 3.58 µM)
IC90 (Rhizoctonia solani (Rs); [7]): 10 µg/mL (≈ 17.9 µM)
IC90 (Botrtyis cinerea (Bc); [8]): 0.4 µg/mL (≈ 0.716 µM)
IC90 (Botrtyis cinerea (Bc); [9]): 0.4 µg/mL (≈ 0.716 µM)
MIC (C. parapsilosis; [10]): 2.1 to 4 µg/mL (≈ 3.76 to 7.16 µM)
MIC (C. parapsilosis; [11]): 2.01 to 4 µg/mL (≈ 3.6 to 7.16 µM)
MIC (C. albicans; [12]): 2.1 to 4 µg/mL (≈ 3.76 to 7.16 µM)
MIC (C. albicans; [13]): 2.01 to 4 µg/mL (≈ 3.6 to 7.16 µM)
pIC50 (human (hACC2); Table 2a): 8.30 to 9.00
pIC50 (human (hACC2); Table 2b, additional results): 8.30 to 9.00
IC90 (Septoria tritici (St); [14]): > 50 µg/mL
IC90 (Septoria tritici (St); [15]): > 50 µg/mL
IC90 (Diplodia maydis (Dm); [16]): 0.4 µg/mL (≈ 0.716 µM)
IC90 (Diplodia maydis (Dm); [17]): 0.4 µg/mL (≈ 0.716 µM)

CCO[C@@H](Cn1c(=O)n(C(C)(C)C(=O)N2CCCC2)c(=O)c2c(C)c(-n3nccn3)sc21)c1cc(F)ccc1OC [Compound I-42, (R)-1-(2-ethoxy-2-(5-fluoro-2-methoxyphenyl)ethyl)-5-methyl-3-(2-methyl-1-oxo-1-(pyrrolidin-1-yl)propan-2-yl)-6-(2H-1,2,3-triazol-2-yl)thieno[2,3-d]pyrimidine-2,4(1H,3H)-dione]
IC90 [1, 3]: 0.08 µg/mL (≈ 0.137 µM)
IC90 ([1]; Fusarium moniliforme, growth inhibition vs 2% DMSO control at 48 hours): 0.08 µg/mL (≈ 0.137 µM)
pIC50 (fungal (fACC2); Table 2a): 8.30 to 9.00
pIC50 (fungal (fACC2); Table 2b, additional results): 8.30 to 9.00
IC90 ([2]; growth inhibition at 48 hours vs 2% DMSO control, read-out: Concentration at 90% Inhibition Fv): 0.08 µg/mL (≈ 0.137 µM)
IC90 ([2]; growth inhibition vs 2% DMSO control at 48 hours, read-out: Concentration at 90% Inhibition Fv): 0.08 µg/mL (≈ 0.137 µM)
IC90 (Rhizoctonia solani (Rs); mycelial plugs, growth inhibition at 48 hours vs 2% DMSO control, read-out: Concentration at 90% Inhibition Rs): 0.4 µg/mL (≈ 0.684 µM)
IC90 (Rhizoctonia solani (Rs); mycelial plugs, growth inhibition vs 2% DMSO control at 48 hours, read-out: Concentration at 90% Inhibition Rs): 0.4 µg/mL (≈ 0.684 µM)
IC90 (Botrtyis cinerea (Bc); Botrtyis cinerea, growth inhibition at 48 hours vs 2% DMSO control, read-out: Concentration at 90% Inhibition Bc): 0.4 µg/mL (≈ 0.684 µM)
IC90 (Botrtyis cinerea (Bc); Botrtyis cinerea, growth inhibition vs 2% DMSO control at 48 hours, read-out: Concentration at 90% Inhibition Bc): 0.4 µg/mL (≈ 0.684 µM)
MIC (C. parapsilosis; Table 3a, ATCC 22019, 3 replicates, MIC recorded at 48 h, read-out: MIC, C. parapsilosis ATCC 22019): 1.1 to 2 µg/mL (≈ 1.88 to 3.42 µM)
MIC (C. parapsilosis; Table 3b (additional results), ATCC 22019, 3 replicates, MIC recorded at 48 h, read-out: MIC, C. parapsilosis ATCC 22019): 1.01 to 2 µg/mL (≈ 1.73 to 3.42 µM)
MIC (C. albicans; Table 3a, ATCC 90028, 3 replicates, MIC recorded at 48 h, read-out: MIC, C. albicans ATCC 90028): 1.1 to 2 µg/mL (≈ 1.88 to 3.42 µM)
MIC (C. albicans; Table 3b (additional results), ATCC 90028, 3 replicates, MIC recorded at 48 h, read-out: MIC, C. albicans ATCC 90028): 2.01 to 4 µg/mL (≈ 3.44 to 6.84 µM)
pIC50 (human (hACC2); Table 2a): 8.00 to 8.30
pIC50 (human (hACC2); Table 2b, additional results): 8.00 to 8.30
IC90 (Septoria tritici (St); Septoria tritici, growth inhibition at 48 hours vs 2% DMSO control, read-out: Concentration at 90% Inhibition St): 2 µg/mL (≈ 3.42 µM)
IC90 (Septoria tritici (St); Septoria tritici, growth inhibition vs 2% DMSO control at 48 hours, read-out: Concentration at 90% Inhibition St): 10 µg/mL (≈ 17.1 µM)
IC90 (Diplodia maydis (Dm); Diplodia maydis, growth inhibition at 48 hours vs 2% DMSO control, read-out: Concentration at 90% Inhibition Dm): 0.4 µg/mL (≈ 0.684 µM)
IC90 (Diplodia maydis (Dm); Diplodia maydis, growth inhibition vs 2% DMSO control at 48 hours, read-out: Concentration at 90% Inhibition Dm): 0.4 µg/mL (≈ 0.684 µM)

Reference: US10800791B2, “Triazole ACC inhibitors and uses thereof” (Gilead Apollo, LLC, priority 2015, dated 2020)
